Each structure is given as a SMILES string.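 Where inhibition never reached the appropriate level, the endpoint shown equals the highest concentration tested. Otherwise, values were interpolated linearly from a five-concentration, 48-hour dose response in 96-well plates. GI50 is the concentration that inhibits growth by half.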 The source made the active and inactive calls. Cut-off read from the data, not from the text of the source: active = GI50 up to about 1.1 µM and inactive = higher.

Test systems include 786-0; COLO 205; HCC 2998; K562; KM12; LOX IMVI; MDA-N; NCI-H23; NCI-H522; NCI/ADR-RES; OVCAR-3; OVCAR-4; OVCAR-8; RPMI-8226; SK-MEL-2; SW-620; UACC-62; UO-31; RXF 393; T47D.
Common to all, as to assay: NCI-60 cell line screen, 48 h

Consider `Cc1ccc(NC(=O)c2cc(S(=O)(=O)Nc3n[nH]c(=O)[nH]3)c(SSc3cc(Cl)c(C(=O)Nc4ccc(C)cc4)cc3S(=O)(=O)Nc3n[nH]c(=O)[nH]3)cc2Cl)cc1`, for which the GI50 with 786-0, with COLO 205, with HCC 2998, in the assay with K562, in the assay with KM12 and with LOX IMVI was > 100 µM (inactive) throughout. Moreover, the GI50 in the assay on MDA-N, in the assay on NCI-H23, in the assay with NCI-H522, in the assay with NCI/ADR-RES, in the assay with OVCAR-3 and in the assay with OVCAR-4 was > 100 µM (inactive) in each case. Moreover, the GI50 in the assay on OVCAR-8 was > 100 µM (inactive); in the assay on RPMI-8226, > 100 µM (inactive); with SK-MEL-2, > 100 µM (inactive); with SW-620, > 100 µM (inactive); with UACC-62 it was 0.838 µM (active); with UO-31 it was > 100 µM (inactive).
With `O=C1C=C/C(=N/c2ccccc2)c2ccccc21`, the GI50 with 786-0 is 12.3 µM (inactive); with COLO 205, 7.03 µM (inactive); in the assay with HCC 2998, 10.2 µM (inactive); with K562, 12.5 µM (inactive); with KM12 it was 11.4 µM (inactive); with LOX IMVI, 4.18 µM (inactive). The GI50 was 2.62 µM (inactive) with NCI-H23; 10.2 µM (inactive) with NCI-H522; 15.1 µM (inactive) in the assay on NCI/ADR-RES; 1.89 µM (inactive) with OVCAR-3; 11.9 µM (inactive) in the assay with OVCAR-4; 11.3 µM (inactive) in the assay with OVCAR-8. Besides, the GI50 was 12.8 µM (inactive) with RPMI-8226; 10.8 µM (inactive) in the assay with RXF 393; 2.19 µM (inactive) in the assay with SK-MEL-2; 7.03 µM (inactive) in the assay on SW-620; 16.2 µM (inactive) with T47D; 3.52 µM (inactive) in the assay on UACC-62. In addition, in the assay on UO-31, the GI50 is 10.3 µM (inactive).
As to `O=C(O)C1(C(=O)O)CC1(C(=O)O)C(=O)O`, the GI50 in the assay on 786-0, in the assay on COLO 205, in the assay with HCC 2998, in the assay with K562, in the assay with KM12 and in the assay on LOX IMVI was > 100 µM (inactive) throughout. The GI50 in the assay on NCI-H23 was > 100 µM (inactive); in the assay with NCI-H522, > 100 µM (inactive); with NCI/ADR-RES, > 100 µM (inactive); in the assay with OVCAR-4 it was > 100 µM (inactive); in the assay with OVCAR-8, > 100 µM (inactive); with RXF 393, 32.6 µM (inactive). In addition, the GI50 with SK-MEL-2, in the assay on SW-620, with T47D, with UACC-62 and with UO-31 was > 100 µM (inactive) in each case.
As to `N/N=C(\N)SCCCCCCCCCCS/C(N)=N/N`, the GI50 was 31.5 µM (inactive) in the assay on 786-0; 14.6 µM (inactive) in the assay with COLO 205; 22.4 µM (inactive) with HCC 2998; 15.1 µM (inactive) in the assay with K562; 20 µM (inactive) in the assay on KM12; 11.5 µM (inactive) with LOX IMVI. The GI50 in the assay on NCI-H23 was 25.8 µM (inactive); in the assay on NCI-H522 it was 17.1 µM (inactive); with NCI/ADR-RES, 21.1 µM (inactive); with OVCAR-3, 19.7 µM (inactive); with OVCAR-8, 16.8 µM (inactive); in the assay with RPMI-8226, 23.3 µM (inactive). The GI50 in the assay on SK-MEL-2 was 16.7 µM (inactive); in the assay on SW-620 it was 17.7 µM (inactive); with T47D it was 5.57 µM (inactive); in the assay with UACC-62, 21.5 µM (inactive); in the assay with UO-31, 15.1 µM (inactive).
Regarding `CCCC(=O)OC1C(CO)OC(n2cc(F)c(=O)[nH]c2=O)C1F` (configuration not stated), the GI50 with 786-0 is 38.5 µM (inactive); in the assay with COLO 205 it was > 100 µM (inactive); with KM12 it was > 100 µM (inactive); with LOX IMVI, > 100 µM (inactive); with NCI-H23, > 100 µM (inactive); with NCI-H522 it was > 100 µM (inactive). Moreover, the GI50 in the assay on NCI/ADR-RES was 11.3 µM (inactive); in the assay with OVCAR-3 it was 54.6 µM (inactive); in the assay with OVCAR-4 it was 60.5 µM (inactive); in the assay on OVCAR-8, 72.1 µM (inactive); in the assay with RPMI-8226, 1.57 µM (inactive); in the assay on RXF 393 it was > 100 µM (inactive). In addition, the GI50 in the assay on SK-MEL-2 was > 100 µM (inactive); with SW-620, > 100 µM (inactive); with T47D, > 100 µM (inactive); with UACC-62, 24.1 µM (inactive); in the assay on UO-31, > 100 µM (inactive).
For the compound `CSC1=C(C#N)C(=O)N(c2ccc(C)cc2)C(=S)C1C#N` (configuration not stated), the GI50 in the assay with 786-0, with COLO 205, in the assay on HCC 2998, in the assay on K562, in the assay on KM12 and in the assay with LOX IMVI was > 100 µM (inactive) in each case. For the same compound, the GI50 in the assay on MDA-N, in the assay with NCI-H522, with NCI/ADR-RES, in the assay with OVCAR-4, in the assay on OVCAR-8 and with RXF 393 was > 100 µM (inactive) each time. Further, the GI50 in the assay on SK-MEL-2, with SW-620 and with UACC-62 was > 100 µM (inactive) each time.
`Brc1ccc(C2=NCSC(c3ccc(Br)cc3)=N2)cc1`: the GI50 with 786-0 is 10.7 µM (inactive); in the assay on COLO 205, 59.7 µM (inactive); in the assay with HCC 2998, 23 µM (inactive); in the assay with K562 it was 31 µM (inactive); in the assay on KM12, 24.4 µM (inactive); in the assay on LOX IMVI, 25.4 µM (inactive). The GI50 in the assay with MDA-N is 20.1 µM (inactive); in the assay on NCI-H23, 32 µM (inactive); in the assay on NCI-H522 it was 22.2 µM (inactive); in the assay with NCI/ADR-RES, 30.5 µM (inactive); with OVCAR-4 it was 41.9 µM (inactive); in the assay with OVCAR-8 it was 37.8 µM (inactive). Further, the GI50 is 16.1 µM (inactive) with RPMI-8226; 8.53 µM (inactive) in the assay with RXF 393; 16.6 µM (inactive) in the assay with SK-MEL-2; 12.1 µM (inactive) in the assay with SW-620; 5.3 µM (inactive) in the assay on UACC-62; 15.4 µM (inactive) in the assay with UO-31.
Consider `CC(=O)OCc1ccc2c(c1)C(O)NC(=O)O2` (configuration not stated), for which the GI50 in the assay on 786-0 is > 100 µM (inactive); with COLO 205, > 100 µM (inactive); in the assay on K562, 31 µM (inactive); with KM12, 88.5 µM (inactive); with LOX IMVI, 47.2 µM (inactive); in the assay with NCI-H23, > 100 µM (inactive). The GI50 in the assay on NCI-H522 was 68.7 µM (inactive); with NCI/ADR-RES, > 100 µM (inactive); in the assay with OVCAR-3 it was 21.8 µM (inactive); in the assay with OVCAR-4, 93.1 µM (inactive); in the assay on OVCAR-8 it was > 100 µM (inactive); in the assay on RPMI-8226, 19.8 µM (inactive). Further, the GI50 was > 100 µM (inactive) in the assay on RXF 393; > 100 µM (inactive) in the assay with SK-MEL-2; 72.8 µM (inactive) in the assay on SW-620; 34.6 µM (inactive) in the assay on T47D; > 100 µM (inactive) with UACC-62; > 100 µM (inactive) in the assay on UO-31.
On to `[O-][N+]1=NC(c2ccccc2)=C1c1ccccc1`, for which the GI50 in the assay on 786-0, in the assay with COLO 205, with K562, in the assay with KM12, with LOX IMVI and in the assay on MDA-N was > 50 µM (inactive) each time. Also, the GI50 with NCI-H23, with NCI-H522, in the assay with NCI/ADR-RES, in the assay with OVCAR-3, in the assay with OVCAR-4 and with OVCAR-8 was > 50 µM (inactive) in each case. The GI50 with RPMI-8226, in the assay with RXF 393, with SK-MEL-2, in the assay on SW-620, in the assay on UACC-62 and in the assay on UO-31 was > 50 µM (inactive) throughout.
For `CCOC(=O)c1cn2c(ccc3sc4ccccc4c(=O)c32)n1`, the GI50 in the assay on 786-0, with COLO 205, with HCC 2998, with K562, with KM12 and in the assay with LOX IMVI was > 100 µM (inactive) each time. In addition, the GI50 in the assay on MDA-N, in the assay with NCI-H23, in the assay on NCI-H522, with NCI/ADR-RES, with OVCAR-3 and in the assay with OVCAR-8 was > 100 µM (inactive) in each case. Moreover, the GI50 in the assay with RPMI-8226, with RXF 393, in the assay on SW-620 and with UO-31 was > 100 µM (inactive) throughout.
With `O=c1c(C(c2cc(OCc3ccccc3)cc(OCc3ccccc3)c2)c2c(O)oc3ccccc3c2=O)c(O)oc2ccccc12`, the GI50 was 8.63 µM (inactive) with 786-0; 8.45 µM (inactive) in the assay on COLO 205; 3.91 µM (inactive) in the assay on HCC 2998; 3.35 µM (inactive) in the assay with K562; 4.19 µM (inactive) in the assay with KM12; 15.3 µM (inactive) in the assay with LOX IMVI. Also, the GI50 in the assay on NCI-H23 was 4.42 µM (inactive); in the assay on NCI-H522, 8.61 µM (inactive); in the assay with NCI/ADR-RES, 17.6 µM (inactive); with OVCAR-3, 13.4 µM (inactive); in the assay on OVCAR-4, 4.97 µM (inactive); in the assay with OVCAR-8 it was 4.18 µM (inactive). The GI50 in the assay on RPMI-8226 was 1.66 µM (inactive); in the assay on RXF 393, 22.4 µM (inactive); in the assay with SK-MEL-2 it was 3.86 µM (inactive); in the assay on SW-620 it was 4.58 µM (inactive); in the assay with T47D, 8.55 µM (inactive); with UACC-62, 4.02 µM (inactive). The GI50 in the assay on UO-31 was 4.85 µM (inactive).

(Values after ChEMBL document CHEMBL1201862, “PubChem BioAssay data set” (2004).)
